This passage reports GI50 and TGI results from PubChem BioAssay (NCI).

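A five-concentration, 48-hour dose response in 96-well plates underlies each endpoint, interpolated linearly between surrounding concentrations. GI50 marks 50% less growth. TGI is the concentration that stops growth completely.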 Bounds are passed on as bounds.

In this test the test system is MDA-MB-468 breast. Kind of test: inhibition of tumour cell growth, NCI panel, 48 h.

On to `CNC(=O)CCN1CCN(CC/C=C2\c3ccccc3Sc3ccc(Cl)cc32)CC1`, for which the GI50 was 3.63 µM and the TGI is 16.9 µM.

For the molecule `Cn1c(=O)c(-c2ccccc2Cl)cc2cnc(NC3CCOCC3)nc21`, the GI50 is more than 19.9 µM and the TGI was more than 25 µM. The like results for `Cc1ccc(-c2nc(NCCOCCOCCN)nc(N3CCN(c4ccccn4)CC3)n2)cc1` were, in that order, 7.04 µM and 18 µM.

As to `COc1cc(N=Nc2cc(Cc3ccc(N(C)C)cc3)c(N)cc2N(C)C)c2ncccc2c1`, the GI50 is 0.226 µM and the TGI stood at 0.622 µM. For `O=c1c(I)c[nH]cc1I`, the GI50 was more than 100 µM and the TGI was more than 100 µM. As to `CCN(CC)CCOC(COc1cc(C)cc(C)c1)COc1cc(C)cc(C)c1`, the GI50 was 1.74 µM and the TGI stood at 3.55 µM. For `COc1cc(-c2nc(-c3ccccc3)c(-c3ccccc3)[nH]2)cc(OC)c1O` the same measures were 15.2 µM and 37.7 µM. The like results for `[O]=[Sn]([CH]1CCCCC1)[CH]1CCCCC1` were, in that order, 0.0977 µM and 0.25 µM. For `COC(=O)c1c(C)nc(C)c2c1C(=O)C(Br)=C(NCc1ccccc1)C2=O` the same measures were 1.11 µM and 2.75 µM. For the molecule `COc1cc2c(c(OC)c1OC)-c1cc(I)c(O)cc1[C@@H](NC(C)=O)CC2`, the GI50 was 0.0243 µM and the TGI was found to be 0.0715 µM. For `CCCCNc1ncnc2c1cnn2-c1ccccc1` the same measures were 2.24 µM and 7.6 µM. For `[Br][Pb]([c]1ccccc1)([c]1ccccc1)[c]1ccccc1` the same measures were 0.148 µM and 0.294 µM.

For `Nc1ncn([C@H]2CC(O)[C@@H](CO)S2)c(=O)n1` (stereo partly drawn), the GI50 was 5.8 µM and the TGI was more than 100 µM. For `CC[C@H](C)[C@H](NC(=O)[C@H]1CCCCN1C)C(=O)N(C)[C@H](CCc1nc(C(=O)N[C@@H](Cc2ccccc2)C[C@H](C)C(=O)O)cs1)C(C)C` the same measures were 0.085 µM and more than 25 µM.

For `CC[C@H](C)[C@H](NC(=O)C12C3C4C1C1C2C3C41NC)C(=O)N(C)[C@H](C[C@@H](OC(C)=O)c1nc(C(=O)N[C@@H](Cc2ccccc2)C[C@H](C)C(=O)OC)cs1)C(C)C` (stereo partly drawn), the GI50 is 0.217 µM and the TGI was more than 5.49 µM. `NC(=NCCCCCCN=C(N)/N=C(\N)Nc1ccc(Cl)cc1)/N=C(\N)Nc1ccc(Cl)cc1`: the GI50 is 0.952 µM and the TGI is 2.28 µM.

For the molecule `O=C1C(Cl)=C(Nc2ccc(S(=O)(=O)c3ccc(NC4=C(Cl)C(=O)c5ccccc5C4=O)cc3)cc2)C(=O)c2ccccc21`, the GI50 was 1.5 µM and the TGI worked out at 3.09 µM. In the case of `CCN(CC)c1ccc(/C=N/NC(=O)Cc2ccc(Nc3ccnc(C(F)(F)F)c3)cc2)c(O)c1`, the GI50 was 0.588 µM and the TGI is more than 60.3 µM. `CN(C)CCCN1c2ccccc2Sc2ccc(C(F)(F)F)cc21`: the GI50 is 1.25 µM and the TGI was determined as 2.65 µM. For `O=C(Nc1cccc(-n2ccc3c(NC(=O)c4ccccc4)ncnc32)c1)Nc1ccc(Cl)c(C(F)(F)F)c1` the same measures were 1.48 µM and 6.06 µM.

For the molecule `Nc1ccc(CC[C@H]2CCC/C=C/[C@@H]3C[C@H](O)C[C@H]3[C@H](O)/C=C/C(=O)O2)cc1`, the GI50 is 0.0106 µM and the TGI came to 0.0374 µM. In the case of `CCCCCCCCCCCC1N=C(N)N=C(N)N1c1cccc(Br)c1` (stereo not drawn), the GI50 was 0.528 µM and the TGI was determined as 1.98 µM. The like results for `CCn1c(-c2nonc2N)nc2ccccc21` were, in that order, more than 14.9 µM and more than 25 µM. For `COc1ccc2nc3ccccc3c(NCCNCCO)c2c1` the same measures were 0.351 µM and 1.37 µM. As for `COc1cc(C(=O)c2cnc(-c3c[nH]c4cccc(C)c34)[nH]2)cc(OC)c1OC`, the GI50 was 0.00264 µM. Regarding `CN1C2C=CC(=O)C1C1C(=O)N(c3ccccc3)C(=O)C12` (stereo not drawn), the GI50 is 2.45 µM and the TGI was found to be 9.03 µM. Turning to `CC(=O)c1cc2c(N)c(C(=O)Nc3cccc4ccccc34)sc2nc1C`, the GI50 was 1.64 µM and the TGI amounted to 31.1 µM.

For the molecule `COc1cccc(C2CC(=O)Nc3c2c(C)nn3-c2nc3ccccc3[nH]2)c1OC` (stereo not drawn), the GI50 was 4.11 µM and the TGI stood at 32.6 µM. `CC1(C)N=C(N)N=C(N)N1c1ccc(CCCC(=O)Nc2ccc(S(=O)(=O)F)cc2)cc1`: the GI50 is 3.33 µM and the TGI is more than 100 µM. In the case of `CN1CCCCC1CCN1c2ccccc2Sc2ccc(Br)cc21` (stereo not drawn), the GI50 was 1.78 µM and the TGI was found to be 3.65 µM.

`COc1cc2ncn(-c3cc(OCc4ccccc4C(F)(F)F)c(C(N)=O)s3)c2cc1OC`: the GI50 was 0.0619 µM and the TGI amounted to 0.857 µM.

On to `N[C@@H]1CCCN(c2c(Br)cnc3[nH]cc(NC(=O)C4CC4)c23)C1`, for which the GI50 was 2.11 µM and the TGI worked out at 36.2 µM. In the case of `Cc1cc(N2CCC(N3CCCC3)CC2)nc(/N=C(\N)Nc2ccc(Cl)c(Cl)c2)n1`, the GI50 was 1.4 µM and the TGI turned out to be 2.73 µM.

`Cc1cc(NC(=O)NCc2ccc(N3C(N)=NC(N)=NC3(C)C)cc2)ccc1S(=O)(=O)F`: the GI50 is 7.99 µM and the TGI was more than 100 µM. Regarding `Cc1ccc(S(=O)(=O)OC[C@@]2(C)CC[C@]3(C)CC[C@]4(C)C(=C3C2)C=C[C@@H]2[C@@]3(C)CCCNC(C)(C)[C@@H]3CC[C@]24C)cc1`, the GI50 is 1.59 µM and the TGI was 3.22 µM. `CCn1cc(C(=O)O)c(=O)c2cc(F)c(N3CCN(S(=O)(=O)c4ccc(Cl)cc4Cl)CC3)cc21`: the GI50 was 1.98 µM and the TGI worked out at 5.5 µM. The like results for `O=C(/C=C/c1ccc(O)c(O)c1)N1CCN(c2ccc(Cl)cc2)CC1` were, in that order, 2.45 µM and 13 µM.

With `Nc1nc(SCc2ccccc2CCl)c2[nH]cnc2n1`, the GI50 is 11.9 µM and the TGI worked out at 30.8 µM. The like results for `CC[C@]12C=CCN3CC[C@]4(C(=C(C(=O)OC)C1)Nc1cc5c(cc14)[C@@H]1[C@H](O5)[C@@H](O)[C@@]4(CC)CC(C(=O)OC)=C5Nc6cc(O)ccc6[C@@]56CCN1C46)C32` (stereo partly drawn) were, in that order, 0.0384 µM and 1.51 µM. In the case of `CC1(C)CC(O)CC(C)(C)N1O`, the GI50 was more than 100 µM and the TGI is more than 100 µM. For `Clc1ccc2c(NCCNc3nc(N4CCOCC4)nc4ccccc34)ccnc2c1`, the GI50 is 1.91 µM and the TGI worked out at 4.53 µM. In the case of `Cc1ccc(NCCNCC(C)(C)O)c2c(=O)c3ccc(Cl)cc3sc12`, the GI50 is 1.7 µM and the TGI stood at 3.24 µM.
